Reference: patent publication US20100174065A1, “COMPOUNDS” (GLAXO GROUP LIMITED, priority 2007, published 2010)
Where a name gives a salt, the structure may show the parent alone.

Target: T1, human S1P1 receptor (Homo sapiens, UniProt P21453)
T1 construct: expressed in transfected cells; membranes
Test: S1P1 GTPγS assay
Type: biochemical
Conditions: agonist activity, [35S]-GTPγS binding, human S1P1 rat hepatoma membranes
Experimental: (§1) For membrane preparations all steps were performed at 4° C. Rat hepatoma cells stably expressing the human S1P1 receptor or Rat Basophilic Leukaemia cells (RBL) stably expressing human S1P3 receptor were grown to 80% confluency before being harvested into 10 ml Phospho-Buffered Saline (PBS) and centrifuged at 1200 rpm for 5 minutes. After removal of the supernatant, the pellet was re-suspended and cells were homogenised within a glass Waring blender for 2 bursts of 15 secs in 200 mls of buffer (50 mM HEPES, 1 mM leupeptin, 25 μg/ml bacitracin, 1 mM EDTA, 1 mM PMSF, 2 μM pepstatin A). The blender was plunged into ice for 5 mins after the first burst and 10-40 mins after the final burst to allow foam to dissipate. The material was then spun at 500 g for 20 mins and the supernatant spun for 36 mins at 48,000 g. The pellet was resuspended in the same buffer as above but without PMSF and pepstatin A. The material was then forced through a 0.6 mm needle, made up to the required volume, (usually ×4 the volume of the original cell pellet), aliquoted and stored frozen at −80° C.
as §1, with “All” for “For membrane preparations all”, “Cells” for “Rat hepatoma cells stably expressing the human S1P1 receptor or Rat Basophilic Leukaemia cells (RBL) stably expressing human S1P3 receptor were grown to 80% confluency before being harvested into 10 ml Phospho-Buffered Saline (PBS) and centrifuged at 1200 rpm for 5 minutes. After removal of the supernatant, the pellet was re-suspended and cells”
Human S1P1 rat hepatoma membranes (1.5 μg/well) were adhered to a wheatgerm agglutinin (WGA)-coated scintillation proximity assay (SPA) beads (0.125 mg/well) in assay buffer (HEPES 20 mM, MgCl2 10 mM, NaCl 100 mM and pH adjusted to 7.4 using KOH 5M, GDP 10 μM FAC (final assay concentration) and saponin 90 μg/ml FAC was also added).
After 30 minutes pre-coupling on ice the bead and membrane suspension was dispensed into a white Greiner polypropylene LV384-well plate ([…]), containing 0.1 μl of the compound. 5 μl/well [^355]-GTPγS (0.5 nM final radioligand conc) made up in assay buffer was then added to agonist plates. The final assay cocktail (10.1 μl) was then centrifuged at 1000 rpm for 5 minutes then read immediately on a Viewlux reader.
All test compounds were dissolved in DMSO at a concentration of 10 mM and were prepared in 100% DMSO using a 1 in 4 dilution step to provide 11 point dose response curves. The dilutions were transferred to the assay plates ensuring that the DMSO concentration was constant across the plate for all assays.
All data was normalized to the mean of 16 high and 16 low control wells on each plate. A four parameter curve fit was then applied.
S1P1 expressing RH7777 membranes (1.5 μg/well) membranes (1.5 μg/well) were homogenised by passing through a 23G needle. These were then adhered to WGA-coated SPA beads (0.125 mg/well) in assay buffer (HEPES 20 mM, MgCl2 10 mM, NaCl 100 mM and pH adjusted to 7.4 using KOH 5M). GDP 10 μM FAC and saponin 90 μg/ml FAC were also added
After 30 minutes precoupling on ice, the bead and membrane suspension was dispensed into white Greiner polypropylene LV 384-well plates (5 μl/well), containing 0.1 μl of compound. 5 μl/well [^35S]-GTPγS (0.5 nM for S1P1 or 0.3 nM for S1P3 final radioligand concentration) made in assay buffer was then added to the plates. The final assay cocktail (10.1 μl) was then sealed, spun on a centrifuge, then read immediately on a Viewlux instrument.

T1 sequence (P21453 whole entry): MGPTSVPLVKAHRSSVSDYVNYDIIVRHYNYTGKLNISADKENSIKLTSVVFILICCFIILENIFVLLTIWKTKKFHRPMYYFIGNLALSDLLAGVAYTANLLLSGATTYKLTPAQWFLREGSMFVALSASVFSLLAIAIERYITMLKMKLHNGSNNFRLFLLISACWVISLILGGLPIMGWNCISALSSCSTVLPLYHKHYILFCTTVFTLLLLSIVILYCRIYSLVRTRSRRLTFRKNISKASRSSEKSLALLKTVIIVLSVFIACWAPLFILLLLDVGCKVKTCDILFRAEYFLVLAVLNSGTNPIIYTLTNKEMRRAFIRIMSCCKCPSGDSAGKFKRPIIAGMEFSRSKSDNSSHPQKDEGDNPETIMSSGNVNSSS

`CC(C)Oc1ccc(-c2nc(-c3cccc4c3CCCN(CC(=O)O)C4)no2)cc1Cl` [Example 12, [6-(5-{3-Chloro-4-[(1-methylethyl)oxy]phenyl}-1,2,4-oxadiazol-3-yl)-1,3,4,5-tetrahydro-2H-2-benzazepin-2-yl]acetic acid hydrochloride] and `CC(C)Oc1ccc(-c2nc(-c3cccc4c3OCCN(CCC(=O)O)C4)no2)cc1Cl` [Example 47, 3-[9-(5-{3-Chloro-4-[(1-methylethyl)oxy]phenyl}-1,2,4-oxadiazol-3-yl)-2,3-dihydro-1,4-benzoxazepin-4(5H)-yl]propanoic acid] cannot be ordered by EC50: less than 0.1 µM for the first, less than 0.1 µM for the second.

`CC(C)Oc1ccc(-c2nc(-c3cccc4c3OCCN(CCCC(=O)O)C4)no2)cc1C#N` [Example 34, 4-[9-(5-{3-Cyano-4-[(1-methylethyl)oxy]phenyl}-1,2,4-oxadiazol-3-yl)-2,3-dihydro-1,4-benzoxazepin-4(5H)-yl]butanoic acid] and `CC(C)Oc1ccc(-c2nc(-c3cccc4c3OCCN(CCCCC(=O)O)C4)no2)cc1C#N` [Example 43, 5-[9-(5-{3-Cyano-4-[(1-methylethyl)oxy]phenyl}-1,2,4-oxadiazol-3-yl)-2,3-dihydro-1,4-benzoxazepin-4(5H)-yl]pentanoic acid] cannot be ordered by EC50: less than 0.1 µM for the first, less than 0.1 µM for the second.

`CC(C)Oc1ccc(-c2nc(-c3ccc4c(c3)CCN(CCCC(=O)O)CC4)no2)cc1C(F)(F)F` [Example 28, 4-(7-{5-[4-[(1-Methylethyl)oxy]-3-(trifluoromethyl)phenyl]-1,2,4-oxadiazol-3-yl}-1,2,4,5-tetrahydro-3H-3-benzazepin-3-yl)butanoic acid hydrochloride] and `CC(C)Oc1ccc(-c2nc(-c3ccc4c(c3)CCN(CC(=O)O)CC4)no2)cc1C(F)(F)F` [Example 24, (7-{5-[4-[(1-Methylethyl)oxy]-3-(trifluoromethyl)phenyl]-1,2,4-oxadiazol-3-yl}-1,2,4,5-tetrahydro-3H-3-benzazepin-3-yl)acetic acid] cannot be ordered by EC50: no more than 0.01 µM for the first, no more than 0.01 µM for the second.

`CC(C)Oc1ccc(-c2nc(-c3ccc4c(c3)CCNCC4)no2)cc1C#N` [Example 18, 2-[(1-Methylethyl)oxy]-5-[3-(2,3,4,5-tetrahydro-1H-3-benzazepin-7-yl)-1,2,4-oxadiazol-5-yl]benzonitrile hydrochloride] and `CC(C)Oc1ncc(-c2nc(-c3ccc4c(c3)CCNCC4)no2)cc1C#N` [Example 48, 2-[(1-Methylethyl)oxy]-5-[3-(2,3,4,5-tetrahydro-1H-3-benzazepin-7-yl)-1,2,4-oxadiazol-5-yl]-3-pyridinecarbonitrile formate] cannot be ordered by EC50: less than 0.1 µM for the first, less than 0.1 µM for the second.

`CC(C)Oc1ccc(-c2nc(-c3ccc4c(c3)CCNCC4)no2)cc1C(F)(F)F` [Example 19, 7-{5-[4-[(1-Methylethyl)oxy]-3-(trifluoromethyl)phenyl]-1,2,4-oxadiazol-3-yl}-2,3,4,5-tetrahydro-1H-3-benzazepine hydrochloride] and `CC(C)Oc1ccc(-c2nc(-c3cccc4c3CCNCC4)no2)cc1Cl` [Example 8, 6-(5-{3-Chloro-4-[(1-methylethyl)oxy]phenyl}-1,2,4-oxadiazol-3-yl)-2,3,4,5-tetrahydro-1H-3-benzazepine hydrochloride] cannot be ordered by EC50: less than 0.1 µM for the first, less than 0.1 µM for the second.

`CC(C)Oc1ccc(-c2nc(-c3ccc4c(c3)OCCNC4)no2)cc1C#N` [Example 41, 2-[(1-Methylethyl)oxy]-5-[3-(2,3,4,5-tetrahydro-1,4-benzoxazepin-8-yl)-1,2,4-oxadiazol-5-yl]benzonitrile] and `CC(C)Oc1ccc(-c2nc(-c3ccc4c(c3)CNCCO4)no2)cc1C#N` [Example 35, 2-[(1-Methylethyl)oxy]-5-[3-(2,3,4,5-tetrahydro-1,4-benzoxazepin-7-yl)-1,2,4-oxadiazol-5-yl]benzonitrile hydrochloride] cannot be ordered by EC50: less than 0.1 µM for the first, less than 0.1 µM for the second.

`CC(C)Oc1ccc(-c2nc(-c3ccc4c(c3)CN(CCC(=O)O)CCO4)no2)cc1C#N` [Example 37, 3-[7-(5-{3-Cyano-4-[(1-methylethyl)oxy]phenyl}-1,2,4-oxadiazol-3-yl)-2,3-dihydro-1,4-benzoxazepin-4(5H)-yl]propanoic acid] and `CC(C)Oc1ccc(-c2nc(-c3ccc4c(c3)CN(CCCC(=O)O)CCO4)no2)cc1C#N` [Example 39, 4-[7-(5-{3-Cyano-4-[(1-methylethyl)oxy]phenyl}-1,2,4-oxadiazol-3-yl)-2,3-dihydro-1,4-benzoxazepin-4(5H)-yl]butanoic acid] cannot be ordered by EC50: less than 0.1 µM for the first, less than 0.1 µM for the second.

`CC(C)Oc1ccc(-c2nc(-c3ccc4c(c3)CCCN(CCC(=O)O)C4)no2)cc1C#N` [Example 6, 3-[7-(5-{3-Cyano-4-[(1-methylethyl)oxy]phenyl}-1,2,4-oxadiazol-3-yl)-1,3,4,5-tetrahydro-2H-2-benzazepin-2-yl]propanoic acid hydrochloride] and `CC(C)Oc1ccc(-c2nc(-c3ccc4c(c3)CCN(CC(=O)O)CC4)no2)cc1C#N` [Example 23, [7-(5-{3-Cyano-4-[(1-methylethyl)oxy]phenyl}-1,2,4-oxadiazol-3-yl)-1,2,4,5-tetrahydro-3H-3-benzazepin-3-yl]acetic acid] cannot be ordered by EC50: less than 0.1 µM for the first, no more than 0.01 µM for the second.

`O=C(O)CCCN1CCc2ccc(-c3noc(-c4ccc(-c5ccccc5)c(C(F)(F)F)c4)n3)cc2CC1` [Example 29, 4-(7-{5-[2-(Trifluoromethyl)-4-biphenylyl]-1,2,4-oxadiazol-3-yl}-1,2,4,5-tetrahydro-3H-3-benzazepin-3-yl)butanoic acid hydrochloride] and `O=C(O)CN1CCc2ccc(-c3noc(-c4ccc(-c5ccccc5)c(C(F)(F)F)c4)n3)cc2CC1` [Example 25, (7-{5-[2-(Trifluoromethyl)-4-biphenylyl]-1,2,4-oxadiazol-3-yl}-1,2,4,5-tetrahydro-3H-3-benzazepin-3-yl)acetic acid] cannot be ordered by EC50: less than 0.1 µM for the first, less than 0.1 µM for the second.

`CC(C)Oc1ccc(-c2nc(-c3ccc4c(c3)CCN(CCCC(=O)O)CC4)no2)cc1Cl` [Example 26, 4-[7-(5-{3-Chloro-4-[(1-methylethyl)oxy]phenyl}-1,2,4-oxadiazol-3-yl)-1,2,4,5-tetrahydro-3H-3-benzazepin-3-yl]butanoic acid] and `CC(C)Oc1ccc(-c2nc(-c3ccc4c(c3)CCN(CCC(=O)O)CC4)no2)cc1Cl` [Example 21, 3-[7-(5-{3-Chloro-4-[(1-methylethyl)oxy]phenyl}-1,2,4-oxadiazol-3-yl)-1,2,4,5-tetrahydro-3H-3-benzazepin-3-yl]propanoic acid] cannot be ordered by EC50: no more than 0.01 µM for the first, no more than 0.01 µM for the second.

`CC(C)Oc1ccc(-c2nc(-c3cccc4c3OCCN(CCCC(=O)O)C4)no2)cc1Cl` [Example 33, 4-[9-(5-{3-Chloro-4-[(1-methylethyl)oxy]phenyl}-1,2,4-oxadiazol-3-yl)-2,3-dihydro-1,4-benzoxazepin-4(5H)-yl]butanoic acid] and `CC(C)Oc1ccc(-c2nc(-c3cccc4c3OCCNC4)no2)cc1Cl` [Example 31, 9-(5-{3-Chloro-4-[(1-methylethyl)oxy]phenyl}-1,2,4-oxadiazol-3-yl)-2,3,4,5-tetrahydro-1,4-benzoxazepine hydrochloride] cannot be ordered by EC50: less than 0.1 µM for the first, less than 0.1 µM for the second.

`CC(C)Oc1ncc(-c2nc(-c3ccc4c(c3)CCN(CCCC(=O)O)CC4)no2)cc1Cl` [Example 50, 4-[7-(5-{5-Chloro-6-[(1-methylethyl)oxy]-3-pyridinyl}-1,2,4-oxadiazol-3-yl)-1,2,4,5-tetrahydro-3H-3-benzazepin-3-yl]butanoic acid] and `CC(C)Oc1ccc(-c2nc(-c3ccc4c(c3)CCN(CC(=O)O)CC4)no2)cc1Cl` [Example 22, [7-(5-{3-Chloro-4-[(1-methylethyl)oxy]phenyl}-1,2,4-oxadiazol-3-yl)-1,2,4,5-tetrahydro-3H-3-benzazepin-3-yl]acetic acid] cannot be ordered by EC50: less than 0.1 µM for the first, less than 0.1 µM for the second.
